Entries after “also recorded” stand apart in the source; their conditions may differ.

The test system of data set [1] is twenty-four-month-old C57 mice. In words: Overnight fecal output, water and food intake in aged mice. It is filed as in vivo. To be noted: 4 weeks continuous infusion by osmotic pump. As for the experimental part:
(§1) Twenty-four-month-old C57 mice were treated for 4 weeks with continuous infusion of Compound 1 or vehicle by Alzet osmotic pump, which were implanted to continuously deliver the two treatments.
(§2) Treatment Groups: • Treatment Group 1, Old Controls: Aged C57BL/6 mice (n=15), aged 23 months, received infusion of vehicle by Alzet mini-pump, model 2002 (0.5 uL/hr), for four weeks with one replacement. • Treatment Group 2, Compound 1 (dose 2) in Old: Aged C57BL/6 mice (n=15), aged 23 months, received infusion of ˜50 mg/ml Compound 1 by Alzet mini-pump, model 2002 (0.5 uL/hr), for four weeks with one replacement.
Fecal output was measured by weighing the dry weight of fecal pellets overnight (FIG. 22). […] is a well-known symptom of Parkinson's disease. Water and food intake were measured over the same time period.

The nature of data set [2]: Tissue distribution of [14C]-radiolabeled Compound 1 (LSC, whole body autoradiography). It is filed as in vivo, C57BL/6JOlaHsd mice. The note with it: 10 mg/kg oral, [14C]-label; 1, 24, 168 hours. As for the experimental part:
The distribution of Compound 1 in mouse tissues was determined after oral administration of which was [^14C]-radiolabeled (“Labeled Compound”) to male pigmented C57BL/6JOlaHsd mice (Harlan Labs, BV). The Labeled Compound was administered at 10 mg/kg of body weight, corresponding to 17 μmol/kg. One animal was sacrificed after 1, 24, and 168 hours post-administration. Blood, plasma, and eye radioactivity concentrations were measured using liquid scintillation counting (LSC). Tissue and organ concentrations were determined by whole body autoradiography technique (QWBA). […]
The following sections were taken at different levels through the embedded animal, and whole body sections selected at 5-7 levels in order to allow for quantitative evaluation of radioactivity: adrenal glands; blood; bone marrow; brain; eye (lens); epididymis; fat (white and brown); Harderian gland; heart; kidneys; liver; lung; muscle; pituitary; pancreas; prostate, spinal cord; spleen salivary gland; skin; testis; thyroid; thymus; uveal tract. […]
FIG. 7 depicts a chart of values reporting the area under the curve (AUC) for all three time points, and quantifies each tissue's exposure to the Labeled POI after administration of the compound.

Data set [3] concerns two-month-old C57Bl/6 mice treated with rmCCL11. In words: Y-maze test in young mice given recombinant mouse CCL11. To be noted: 2-month-old mice; rmCCL11 i.p.; Compound 1 30 mg/kg p.o. b.i.d. In kind it is in vivo. As for the experimental part:
A large Y-maze test assesses short-term memory of the familiarity of a specific context. Mice are brought to the experimental room for at least 30 min of acclimation to the experimental room conditions (dim lighting) prior to testing. For the initial training trial, the mouse is placed at the end of one arm of a large Y-maze designated “start arm” (arm length: 15 inches). The third arm of the maze is blocked off, allowing the mouse to explore two of the three arms freely (“start arm” and “familiar arm”) for 5 min. Each arm contains spatial cues. One hour later, the mouse is placed back into the maze in the “start arm” and allowed to explore all three arms with the third arm unblocked (“novel arm”). Movements in and out of each arm are tracked using automated tracking software (CleverSys). Testing is performed under dim lighting, and the apparatus is cleaned with 70% ethanol between trials.
Two-month-old C57Bl/6 mice were dosed with either vehicle control or Compound 1 by oral gavage twice daily for 18 days. During the last week of treatment, mice were subjected to behavior testing prior to perfusion on the last day of treatment. All mice received 5 consecutive days of BrdU injection at 150 mg/kg IP immediately prior to treatment start. […]

Data set [4] relates to twenty-four-month-old C57 mice. In words: Rotarod test for motor coordination in aged mice. It is filed as in vivo. To be noted: 4 weeks continuous infusion by osmotic pump. As for the experimental part: The mice were trained in the rotarod for 3 trials up to 100 seconds each, the rotarod being a test of motor coordination. Success or failure was recorded on the last trial, with success defined by a latency to fall of >90 seconds. A binomial test was conducted to compare success rates between control and compound-treated mice.
as §1, §2

As to `Cc1cc(C(=O)N(C)C)cc(NC(=O)[C@H]2CCC(=O)N2C2CCN(Cc3ccc(Cl)c(C)c3)CC2)n1` [Compound 1], in data set [1], the fecal output overnight entry is on record as “significantly lower fecal output”, the food intake overnight result is reported as “no differences in total food intake” and the water intake overnight result was “significantly higher water intake; also recorded: drank significantly more water”. The “crossing of the blood-brain barrier (tissue AUC of radioactivity)” value in data set [2] is recorded as “does not cross the blood-brain barrier (BBB) at significant levels”. For the same molecule, in data set [3], the “memory in the Y-maze” value was “no longer significantly different from control mice”. Further, the “proportion of mice able to stay on the rod for longer than 90 seconds” value in data set [4] (control 20%) was 47%. Further, the “Rotarod success versus vehicle (binomial test)” value in data set [4] (success = latency to fall >90 seconds) is reported as “succeeded more than vehicle-treated mice”.

For the origin of these results see patent US11382907B2, “Methods and compositions for treating aging-associated impairments using CCR3-inhibitors” (Alkahest, Inc., priority 2017, dated 2022).
